# Patent US10538535B2, “Antitumoral compounds” (priority 2017, dated 2020)
# Where two headings read alike, the source gives them in different places.
# Columns and labels:
# HT29 cells = assay: cells; details: Homo sapiens, HT-29, 72 h
# Method in brief: (§1)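 Human cancer lines grown in DMEM plus 10% FBS at 37° C. were plated at 5000 cells/well and left 18 hours before dosing. Test compounds (10 to 0.003 μg/mL, triplicates) acted for 72 hours, after which glutaraldehyde-fixed cells were stained with sulforhodamine B.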
# A549 cells = assay: cells; details: Homo sapiens, A549, 72 h
# Method in brief: as §1
# PSN1 cells = assay: cells; details: Homo sapiens, PSN1, 72 h
# Method in brief: as §1
# MDA-MB-231 cells = assay: cells; details: Homo sapiens, MDA-MB-231, 72 h
# Method in brief: as §1
# H82 tumors = assay: In vivo xenograft, human lung (SCLC) H82; details: iv Days 0, 7, 14, 12-R 0.05 mg/kg, Compound D 0.5 mg/kg
# Procedure: Female athymic nu/nu mice (Harlan Laboratories Models, S. L. Barcelona, Spain or Envigo, Spain) were utilized for all experiments. Animal were housed in individually ventilated cages Sealsafe® Plus, Techniplast S.P.A.), up to ten per cage on a 12-hour light-dark cycle at 21-23° C. and 40-60% humidity. Mice were allowed free access to irradiated standard rodent diet (Tecklad 2914C) and sterilized water. Animals were acclimated for at least 5 days prior to tumor implantation with a tumor cell suspension.
# H82 cells were grown as a suspension and maintained by addition of fresh medium, as the cell density increases, every 2 to 3 days. Every week, culture was reestablished by centrifugation of the suspension with subsequent resuspension in fresh medium at a concentration of 1×10^5 cell/ml. Animals were subcutaneously implanted (on the right flank using 26 G needle and a 1 cc syringe) at 4-6 weeks of age with 5×10^6 H82 cells, suspended in 0.05 mL of a solution consisting of 50% Matrigel® (Corning Incorporated Life Sciences) and 50% medium without serum or antibiotics.
# (§2) Treatment tolerability was assessed by monitoring body weight evolution, clinical signs of systemic toxicity, as well as evidences of local damage in the injection site.
# (§3) In xenograft studies with other cell lines: • Tumor volume was calculated using the equation (a·b^2)/2, where a: length (longest diameter) and b: width (shortest diameter) were measured in mm by using digital caliper (Fowler Sylvac, S235PAT).
# (§4) Treatments producing >20% lethality and/or 20% net body weight loss were considered toxic.
# Tables and figures summarize the data obtained from complete experimental groups, i.e. those groups keeping the initial number of animals, n=8-10.
# Procedure for MDA-MB-231 tumors: Female athymic nu/nu mice (Harlan Laboratories Models, S. L. Barcelona, Spain or Envigo, Spain) were utilized for all experiments. Animal were housed in individually ventilated cages Sealsafe® Plus, Techniplast S.P.A.), up to ten per cage on a 12-hour light-dark cycle at 21-23° C. and 40-60% humidity. […] Animals were acclimated for at least 5 days prior to tumor implantation with a tumor cell suspension.
# MDA-MB-231 cells were maintained in vitro at 37° C. with 5% CO2 in Dulbecco's Modified Eagle's Medium (Sigma-Aldrich, Co). Culture cells were passaged every 3 to 5 days upon reaching confluence.
# as §2, §3, §4
smiles,measurement,setting,value
COc1c(C)cc2c(c1O)[C@@H]1[C@@H]3[C@@H]4SC[C@]5(N[C@@H](C)Cc6c5[nH]c5ccccc65)C(=O)OC[C@@H](c5c6c(c(C)c(OC(C)=O)c54)OCO6)N3[C@@H](O)[C@H](C2)N1C [D],GI50,HT29 cells,0.0103 µM
same,CC50,HT29 cells; read-out: LC50,> 0.13 µM
same,IC (TGI),HT29 cells; read-out: TGI,0.0234 µM
same,GI50,A549 cells,0.0125 µM
same,CC50,A549 cells; read-out: LC50,> 0.13 µM
same,IC (TGI),A549 cells; read-out: TGI,0.0286 µM
same,GI50,PSN1 cells,0.0208 µM
same,CC50,PSN1 cells; read-out: LC50,0.0247 µM
same,IC (TGI),PSN1 cells; read-out: TGI,0.0221 µM
same,GI50,MDA-MB-231 cells,0.00988 µM
same,CC50,MDA-MB-231 cells; read-out: LC50,0.0533 µM
same,IC (TGI),MDA-MB-231 cells; read-out: TGI,0.0195 µM
same,Median Tumor Volume,"MDA-MB-231 tumors; Table 22, Day 0, iv Days 0, 7, 14",129.5 mm^3
same,Median Tumor Volume,"MDA-MB-231 tumors; Table 22, Day 7, iv Days 0, 7, 14",147.9 mm^3
same,Median Tumor Volume,"MDA-MB-231 tumors; Table 22, Day 14, iv Days 0, 7, 14",186.4 mm^3
same,Median Tumor Volume,"MDA-MB-231 tumors; Table 22, Day 21, iv Days 0, 7, 14",136.5 mm^3
same,Median Tumor Volume,"MDA-MB-231 tumors; Table 22, Day 28, iv Days 0, 7, 14",290.7 mm^3
same,Median Tumor Volume,"MDA-MB-231 tumors; Table 22, Day 35, iv Days 0, 7, 14",431.7 mm^3
same,Median Tumor Volume,"MDA-MB-231 tumors; Table 22, Day 42, iv Days 0, 7, 14",770.1 mm^3
same,Median Tumor Volume,"MDA-MB-231 tumors; Table 22, Day 49, iv Days 0, 7, 14",970.0 mm^3
same,Median Tumor Volume,"MDA-MB-231 tumors; Table 22, Day 56, iv Days 0, 7, 14",1461.9 mm^3
same,Median Tumor Volume,"MDA-MB-231 tumors; Table 22, Day 63, iv Days 0, 7, 14",1526.4 mm^3
same,Median Tumor Volume,"MDA-MB-231 tumors; iv, 0.5 mg/kg, 0 h",149.6 mm^3
same,Median Tumor Volume,"MDA-MB-231 tumors; iv, 0.5 mg/kg, 48 h",217.2 mm^3
same,Median Tumor Volume,"MDA-MB-231 tumors; iv, 0.5 mg/kg, 120 h",284.5 mm^3
same,Median Tumor Volume,"MDA-MB-231 tumors; iv, 0.5 mg/kg, 168 h",310.0 mm^3
same,Median Tumor Volume,"MDA-MB-231 tumors; iv, 0.5 mg/kg, 336 h",237.7 mm^3
same,Median Tumor Volume,"MDA-MB-231 tumors; iv, 0.5 mg/kg, 384 h",261.2 mm^3
same,Median Tumor Volume,"MDA-MB-231 tumors; iv, 0.5 mg/kg, 456 h",251.3 mm^3
same,Median Tumor Volume,"MDA-MB-231 tumors; iv, 0.5 mg/kg, 504 h",219.9 mm^3
same,Median Tumor Volume,"MDA-MB-231 tumors; iv, 0.5 mg/kg, 552 h",221.8 mm^3
same,Median Tumor Volume,"MDA-MB-231 tumors; iv, 0.5 mg/kg, 672 h",320.3 mm^3
same,Median Tumor Volume,"MDA-MB-231 tumors; iv, 0.5 mg/kg, 720 h",401.6 mm^3
same,Median Tumor Volume,"MDA-MB-231 tumors; iv, 0.5 mg/kg, 840 h",629.2 mm^3
same,Median Tumor Volume,"MDA-MB-231 tumors; iv, 0.5 mg/kg, 888 h",670.7 mm^3
same,Median Tumor Volume,"MDA-MB-231 tumors; iv, 0.5 mg/kg, 960 h",669.9 mm^3
same,Median Tumor Volume,"MDA-MB-231 tumors; iv, 0.5 mg/kg, 1056 h",798.1 mm^3
same,Median Tumor Volume,"MDA-MB-231 tumors; iv, 0.5 mg/kg, 1128 h",857.7 mm^3
same,Median Tumor Volume,"MDA-MB-231 tumors; iv, 0.5 mg/kg, 1176 h",870.7 mm^3
same,Median Tumor Volume,"MDA-MB-231 tumors; iv, 0.5 mg/kg, 1224 h",925.8 mm^3
same,Median Tumor Volume,"MDA-MB-231 tumors; iv, 0.5 mg/kg, 1296 h",1005.4 mm^3
same,Median Tumor Volume,"MDA-MB-231 tumors; iv, 0.5 mg/kg, 1344 h",1064.2 mm^3
same,Median Tumor Volume,"MDA-MB-231 tumors; iv, 0.5 mg/kg, 1392 h",1235.6 mm^3
same,Median Tumor Volume,"MDA-MB-231 tumors; iv, 0.5 mg/kg, 1464 h",1367.8 mm^3
same,Median Tumor Volume,"MDA-MB-231 tumors; iv, 0.5 mg/kg, 1512 h",1553.7 mm^3
same,Median Tumor Volume,"H460 tumors; Table 24, Day 0, iv Days 0, 7, 14",203.4 mm^3
same,Median Tumor Volume,"H460 tumors; Table 24, Day 2, iv Days 0, 7, 14",367.3 mm^3
same,Median Tumor Volume,"H460 tumors; Table 24, Day 7, iv Days 0, 7, 14",792.0 mm^3
same,Median Tumor Volume,"H460 tumors; Table 24, Day 9, iv Days 0, 7, 14",854.6 mm^3
same,Median Tumor Volume,"H460 tumors; Table 24, Day 12, iv Days 0, 7, 14",1026.7 mm^3
same,Median Tumor Volume,"H460 tumors; Table 24, Day 14, iv Days 0, 7, 14",1175.8 mm^3
same,Median Tumor Volume,"H460 tumors; Table 24, Day 16, iv Days 0, 7, 14",1322.1 mm^3
same,Median Tumor Volume,"H460 tumors; Table 24, Day 19, iv Days 0, 7, 14",1581.1 mm^3
same,Median Tumor Volume,"H460 tumors; Table 24, Day 21, iv Days 0, 7, 14",1789.3 mm^3
same,Median Tumor Volume,"H460 tumors; Table 24, Day 23, iv Days 0, 7, 14",1966.5 mm^3
same,Median Tumor Volume,"H460 tumors; Table 24, Day 26, iv Days 0, 7, 14",2080.7 mm^3
same,Median Tumor Volume,"H460 tumors; iv, 0.5 mg/kg, 0 h",187.2 mm^3
same,Median Tumor Volume,"H460 tumors; iv, 0.5 mg/kg, 48 h",329.7 mm^3
same,Median Tumor Volume,"H460 tumors; iv, 0.5 mg/kg, 120 h",559.4 mm^3
same,Median Tumor Volume,"H460 tumors; iv, 0.5 mg/kg, 168 h",756.5 mm^3
same,Median Tumor Volume,"H460 tumors; iv, 0.5 mg/kg, 336 h",1626.8 mm^3
same,Median Tumor Volume,"H460 tumors; iv, 0.5 mg/kg, 384 h",2025.0 mm^3
same,Median Tumor Volume,"H82 tumors; Table 33, Day 0.0",169.4 mm^3
same,Median Tumor Volume,"H82 tumors; Table 33, Day 2.0",340.6 mm^3
same,Median Tumor Volume,"H82 tumors; Table 33, Day 5.0",443.3 mm^3
same,Median Tumor Volume,"H82 tumors; Table 33, Day 7.0",496.2 mm^3
same,Median Tumor Volume,"H82 tumors; Table 33, Day 9.0",614.1 mm^3
same,Median Tumor Volume,"H82 tumors; Table 33, Day 12.0",665.5 mm^3
same,Median Tumor Volume,"H82 tumors; Table 33, Day 14.0",1041.6 mm^3
same,Median Tumor Volume,"H82 tumors; Table 33, Day 16.0",1151.2 mm^3
same,Median Tumor Volume,"H82 tumors; Table 33, Day 19.0",1516.7 mm^3
